Test results taken from patent publication US20060276445A1, “Bicyclic 6-alkylidene-penems as class-D beta-lactamases inhibitors” (priority 2005, published 2006).

System: not given
Test: not given
Settings: not given

Work on `O=C(O)C1=CS[C@@H]2/C(=C\c3cc4c(s3)CCN(Cc3ccccc3)C4)C(=O)N12` [Example 1, (5R,6Z)-6-[(5-benzyl-4,5,6,7-tetrahydrothieno[3,2-c]pyridin-2-yl)methylene]-7oxo-4-thia-1-azabicyclo[3.2.0]hept-2-ene-2-carboxylic acid] yielded a melting point of 198 °C.

In the case of `CN1CCc2sc(C=C3C(=O)N4C(C(=O)O)=CSC34)cc2C1` (stereo not drawn) [Example 17, 6-(5-Methyl-4,5,6,7-tetrahydro-thieno[3,2-c]pyridin-2-ylmethylene)-7-oxo-4-thia-1-aza-bicyclo[3.2.0]hept-2-ene-2-carboxylic acid], the melting point is reported as > 250 °C.
For `CCOC(=O)N1CCc2sc(C=C3C(=O)N4C(C(=O)O)=CSC34)cc2C1` (stereo not drawn) [Example 18, 2-(2-Carboxy-7-oxo-4-thia-1-aza-bicyclo[3.2.0]hept-2-en-6-ylidenemethyl)-6,7-dihydro-4H-thieno[3,2-c]pyridine-5-carboxylic acid ethyl ester], the melting point was > 250 °C.

System: E. coli GC 2883 (OXA-10 + PSE-2)
Test: Antimicrobial susceptibility testing, microbroth dilution (NCCLS), piperacillin combined with β-lactamase inhibitor
Format: cell-based
Settings: MIC of piperacillin combined with a constant amount (4 ug/ml) of the inhibitor; class-D producing E. coli GC 2883 (OXA-10 + PSE-2); 35° C. for 18 hours
Protocol: Antimicrobial susceptibility testing. The in vitro activities of the antibiotic, piperacillin in this case, against resistant pathogens expressing class-D enzymes were determined by the microbroth dilution method as recommended by the National Committee for Clinical Laboratory Standards (NCCLS). (NCCLS. 2000. Methods for Dilution Antimicrobial Susceptibility Tests for Bacteria That Grow Aerobically; Approved Standards: M7-A5, vol. 19. National Committee for Clinical Laboratory Standards, Villanova, Pa.). Mueller-Hinton II broth (MHBII)(BBL Cockeysville, Md.), was used for the testing procedure. Microtiter plates containing 50 μL per well of two-fold serial dilutions of piperacillin combined with a constant amount (4 ug/ml) of a B-lactamase inhibitor were inoculated with 50 μL of inoculum to yield the appropriate density (10^5 CFU/mL) in 100 μL final volume. The plates were incubated for 18-22 hours at 35° C. in ambient air. […] The MIC50 data obtained by the above said procedure are enlisted in Table 1. […] Both OXA-10 and PSE-2 are class D β-lactamases. (Bush, K. Jacoby, G. A., Medeiros, A. A. Antimicrob. Agents Chemother., 1995, 39, 1211.)

Going from `CN1CCn2cc(/C=C3/C(=O)N4C(C(=O)[O-])=CS[C@H]34)nc2C1.[Na+]` [Example 2, (5R),(6Z)-6-(7-Methyl-5,6,7,8-tetrahydroimidazo[1,2-a]pyrazin-2-ylmethylene)-7-oxo-4-thia-1-aza-bicyclo[3.2.0]hept-2-ene-2-carboxylic acid, sodium salt] to `O=C([O-])C1=CS[C@@H]2/C(=C\c3cn4c(n3)CCC4)C(=O)N12.[Na+]` [Example 6, (5R),(6Z)-6-(6,7-Dihydro-5H-pyrrolo[1,2-a]imidazol-2-ylmethylene)-7-oxo-4-thia-1-aza-bicyclo[3.2.0]hept-2-ene-2-carboxylic acid, sodium salt], the “Minimal Inhibitory Concentration (MIC50) Data” value falls from 4 µg/mL to 2 µg/mL (2-fold).

`O=C([O-])C1=CS[C@@H]2/C(=C\c3cn4c(n3)CNCC4)C(=O)N12.[Na+]` [Example 3, (5R),(6Z)-7-Oxo-6-(5,6,7,8-tetrahydroimidazo[1,2-a]pyrazin-2-ylmethylene)-4-thia-1-azabicyclo[3.2.0]hept-2-ene-2-carboxylic acid, sodium salt] and `O=C([O-])C1=CS[C@@H]2/C(=C\c3cn4c(n3)CSCC4)C(=O)N12.[Na+]` [Example 5, (5R),(6Z)-6-(5,6-dihydro-8H-imidazo[2,1-c][1.4]thiazin-2-ylmethylene)-7-oxo-4-thia-1-azabicyclo[3.2.0]hept-2-ene-2-carboxylic acid, sodium salt] are the same in “Minimal Inhibitory Concentration (MIC50) Data” value: 2 µg/mL for the first, 2 µg/mL for the second.

Compared with `COc1ccc(CN2CCc3sc(/C=C4/C(=O)N5C(C(=O)O)=CS[C@H]45)cc3C2)cc1` [Example 4], `O=C(O)C1=CS[C@@H]2/C(=C\c3cc4c(s3)CCN(Cc3cccnc3)C4)C(=O)N12` [Example 21] is 2-fold higher in “Minimal Inhibitory Concentration (MIC50) Data” value: 4 µg/mL for the first, 8 µg/mL for the second.

Compared with `O=C([O-])C1=CS[C@@H]2/C(=C\c3cn4c(n3)COCC4)C(=O)N12.[Na+]` [Example 7, (5R),(6Z)-6-(5,6-Dihydro-8H-imidazo[2,1-c][1,4]oxazin-2-ylmethylene)-7-oxo-4-thia-1-azabicyclo[3.2.0]hept-2-ene-2-carboxylic acid, sodium salt], `CN1Cc2nc(/C=C3/C(=O)N4C(C(=O)[O-])=CS[C@H]34)cn2CC1=O.[Na+]` [Example 10, (5R),(6Z)-6-(7-Methyl-6-oxo-5,6,7,8-tetrahydro-imidazo[1,2-a]pyrazin-2-ylmethylene)-7-oxo-4-thia-1-aza-bicyclo[3.2.0]hept-2-ene-2-carboxylic acid sodium salt] is 2-fold higher in “Minimal Inhibitory Concentration (MIC50) Data” value: 4 µg/mL for the first, 8 µg/mL for the second.

`O=C([O-])C1=CS[C@@H]2/C(=C\c3cc4n(n3)CCC4)C(=O)N12.[Na+]` [Example 8, (5R),(6Z)-6-(5,6-Dihydro-4H-pyrrolo[1,2-b]pyrazol-2-ylmethylene)-7-oxo-4-thia-1-azabicyclo[3.2.0]hept-2-ene-2-carboxylic acid, sodium salt] and `O=C([O-])C1=CS[C@@H]2/C(=C\c3cc4n(n3)CCNC4)C(=O)N12.[Na+]` [Example 25, (5R),(6Z)-7-Oxo-6-(4,5,6,7-tetrahydropyrazolo[1,5-a]pyrazin-2-ylmethylene)-4-thia-1-aza-bicyclo[3.2.0]hept-2-ene-2-carboxylic acid, sodium salt] are the same in “Minimal Inhibitory Concentration (MIC50) Data” value: 4 µg/mL for the first, 4 µg/mL for the second.

First: O=C([O-])C1=CS[C@@H]2/C(=C\c3cn4c(n3)CN(Cc3ccccc3)CC4)C(=O)N12.[Na+] [Example 20, (5R),(6Z)-6-(7-Benzyl-5,6,7,8-tetrahydroimidazo[1,2-a]pyrazin-2-ylmethylene)-7-oxo-4-thia-1-azabicyclo[3.2.0]hept-2-ene-2-carboxylic acid, sodium salt]
Second: O=C(O)C1=CS[C@@H]2/C(=C\c3cc4c(s3)CCN(C(=O)Cc3ccccc3)C4)C(=O)N12 [Example 23]
The “Minimal Inhibitory Concentration (MIC50) Data” value of the first is 2-fold higher: 16 µg/mL for the first, 8 µg/mL for the second.

`O=C(O)C1=CS[C@@H]2/C(=C\c3cc4c(s3)CCN(C(=O)c3cccnc3)C4)C(=O)N12` [Example 22] and `CC(=O)N1CCc2sc(/C=C3/C(=O)N4C(C(=O)O)=CS[C@H]34)cc2C1` [Example 33, (5R,6Z)-6-[(5-acetyl-4,5,6,7-tetrahydrothieno[3,2-c]pyridin-2-yl)methylene]-oxo-4-thia-1-azabicyclo[3.2.0.]hept-2-ene-2-carboxylic acid] are the same in “Minimal Inhibitory Concentration (MIC50) Data” value: 16 µg/mL for the first, 16 µg/mL for the second.

Going from `O=C([O-])C1=CS[C@@H]2/C(=C\c3cc4n(n3)CCS(=O)(=O)C4)C(=O)N12.[Na+]` [Example 24, (5R),(6Z)-6-(5,5-Dioxo-4,5,6,7-tetrahydro-5λ^6-pyrazolo[5,1-c][1,4]thiazin-2-ylmethylene)-7-oxo-4-thia-1-azabicyclo[3.2.0]hept-2-ene-2-carboxylic acid, sodium salt] to `O=C([O-])C1=CS[C@@H]2/C(=C\c3cc4n(n3)CCCO4)C(=O)N12.[Na+]` [Example 35, (5R)(6Z)-6-(6,7-5H-Dihydropyrazolo[5,1-b]oxazin-2-Ylmethylene)-7-oxo-4-thia-1-azabicyclo[3.2.1]hept-2-ene-2-carboxylic acid, sodium salt], the “Minimal Inhibitory Concentration (MIC50) Data” value falls from 4 µg/mL to 2 µg/mL (2-fold).

`CC1(C)Cc2cc(/C=C3/C(=O)N4C(C(=O)[O-])=CS[C@H]34)nn2C1.[Na+]` [Example 26, (5R)(6Z)-6-(5,5-Dimethyl-4H-1.6a-diazapentalen-2-ylmethylene)-7-oxo-4-thia-1-azabicyclo[3.2.0]hept-2-ene-2-carboxylic acid, sodium salt] and `CC1(C)Cn2cc(/C=C3/C(=O)N4C(C(=O)[O-])=CS[C@H]34)nc2CN1.[Na+]` [Example 29, (5R),(6Z)-6-(6,6-Dimethyl-5,6,7,8-tetrahydroimidazo[1,2-a]pyrizin-2-ylmethylene)-7-oxo-4-thia-1-azabicyclo[3.2.0]hept-2-ene-2-carboxylic acid, sodium salt] are the same in “Minimal Inhibitory Concentration (MIC50) Data” value: 4 µg/mL for the first, 4 µg/mL for the second.

`O=C([O-])C1=CS[C@@H]2/C(=C\c3cc4c(o3)CCC4)C(=O)N12.[Na+]` [Example 27, (5R),(6Z)-6-(5,6-Dihydro-4H-cyclopenta[b]furan-2-ylmethylene)-7-oxo-4-thia-1-azabicyclo[3.2.0]hept-2-ene-2-carboxylic acid, sodium salt] and `O=C([O-])C1=CS[C@@H]2/C(=C\c3cc4n(n3)CCN(C3=NCCS3)C4)C(=O)N12.[Na+]` [Example 38, (5R),(6Z)-6-[5-(4,5-Dihydrothiazol-2-yl)-4,5,6,7-tetrahydropyrazolo[1,5-a]pyrazin-2-ylmethylene]-7-oxo-4-thia-1-azabicyclo[3.2.0]hept-2-ene-2-carboxylic acid sodium salt] are the same in “Minimal Inhibitory Concentration (MIC50) Data” value: 2 µg/mL for the first, 2 µg/mL for the second.

First: O=C(O)C1=CS[C@@H]2/C(=C\c3cnc4n3CCSC4)C(=O)N12 [Example 30, (5R),(6Z)-6-(5,6-Dihydro-8-H-imidazo[2,1-c][1,4]thiazin-3-ylmethylene)-7-oxo-4-thia-1-azabicyclo[3.2.0]hept-2-ene-2-carboxylic acid]
Second: COCC(=O)N1CCn2nc(/C=C3/C(=O)N4C(C(=O)[O-])=CS[C@H]34)cc2C1.[Na+] [Example 37, (5R),(6Z)-6-[5-(2-methoxyacetyl)-4,5,6,7-tetrahydropyrazolo[1,5-a]pyrazin-2-ylmethylene]-7-oxo-4-thia-1-azabicyclo[3.2.0]hept-2-ene-carboxylic acid, sodium salt]
The “Minimal Inhibitory Concentration (MIC50) Data” value of the first is 2-fold higher: 4 µg/mL for the first, 2 µg/mL for the second.

In the case of `O=C([O-])CCC(=O)N1CCn2nc(/C=C3/C(=O)N4C(C(=O)[O-])=CS[C@H]34)cc2C1.[Na+].[Na+]` [Example 36, (5R),(6Z)-6-[5-(3-carboxypropionyl)-4,5,6,7-tetrahydropyrazolo[1,5-a]pyrazin-2-ylmethylene]-7-oxo-4-thia-1-azabicyclo[3.2.0]hept-2-ene-carboxylic acid, disodium salt], the “Minimal Inhibitory Concentration (MIC50) Data” value is reported as 4 µg/mL.

System: E. coli GC 2883 (OXA-10 + PSE-2)
Test: as above
Format: cell-based
Settings: Escherichia coli; piperacillin as control, without inhibitor

In the case of `CCN1CCN(C(=O)N[C@@H](C(=O)N[C@@H]2C(=O)N3[C@@H]2SC(C)(C)[C@@H]3C(=O)O)c2ccccc2)C(=O)C1=O` [piperacillin], the MIC50 is reported as > 64 µg/mL.
